This is an account of results in the METLIN SMRT retention time set (Domingo-Almenara et al. 2019).

Each structure is given as a SMILES string.

The nature of this series: gradient 5% acetonitrile 3 min, to 50% in 2 min, to 85% in 15 min, held 3 min, 100 µL/min. The conditions noted are these: column: Zorbax Extend-C18 2.1 x 50 mm; eluents: water / acetonitrile, 0.1% formic acid. A digest of the protocol:
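Mixtures of ~100 pure standards were chromatographed on a Zorbax Extend-C18 column (2.1 × 50 mm, 1.8 μm) at 100 μL/min using water and acetonitrile, each with 0.1% formic acid. Detection used a quadrupole time-of-flight mass spectrometer in positive and negative ionization mode, and data collection spanned 3 months. Retention time was obtained from adduct peaks picked computationally and each checked manually.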
`CCCS(=O)(=O)N1CC(=O)N(c2cccc(Cl)c2C)C(C)(C(=O)NC2CCCC2)C1` (stereo not drawn) came in with an RP-LC retention time of 946 s.
`COCCN1CC2(CCN(S(=O)(=O)c3cc(C)c(C)cc3C)CC2)C1c1ccncc1` (stereo not drawn) showed an RP-LC retention time of 672 s.
For `CC(C)C(=O)Nc1nc(-c2ccc3c(c2)NC(=O)C(C)O3)cs1` (stereo not drawn), the RP-LC retention time was 787 s.
The result for `CCN1C(=O)C(C)(C(=O)NCc2cccc(C)c2)Oc2cccnc21` (stereo not drawn) reads 744 s; that for `Cc1ccc(-n2ncc3c(=O)n(Cc4nc(-c5ccc(Cl)c(F)c5)no4)cnc32)cc1`, 1210 s; that for `Cc1ccccc1NC(=O)Cn1c(N)nc(C)c(C)c1=O`, 596 s.
The result for `O=C(NCc1ccccn1)c1cccc2c1CCN2C(=O)c1ccc(F)cc1` reads 644 s; that for `COCc1noc([C@@H]2CC(F)(F)CN2C(=O)CC(C)(C)C)n1`, 830 s.
Under `CC(C)CC(=O)N1CC[C@@H]2COCCN(C)[C@@H]2C1` stands 575 s; under `CC(C)CNC(=O)C1CCN(c2nc3ccsc3c(=O)n2-c2ccccc2)CC1`, 786 s.
The compound `O=C(Cn1cccc1-c1nnc(C2CCC2)o1)N1CCN(c2ccccc2)CC1` displayed an RP-LC retention time of 898 s.
Under `COc1ccc(-c2csc(NC(=O)CCc3c(C)[nH]c(=O)[nH]c3=O)n2)cc1` stands 646 s.
The result for `Cc1nn(CC(=O)N2CCOCC2)c(=O)c2c(-n3cccc3)n(-c3cccc(F)c3)nc12` reads 733 s; that for `CCC(C)(C(=O)NC1CCCCC1)N(Cc1ccco1)C(=O)c1ccc2c(c1)OCO2` (stereo not drawn), 564 s; that for `COc1ccc(Cl)cc1NC(=O)N1CCC2(CC1)NC(=O)c1ccccc1O2`, 1190 s.
Under `O=C1c2ccccc2C(O)(c2ccccc2)N1c1ccncc1` (stereo not drawn) stands 702 s.
The compound `CCc1ccc(NC(=O)C2CCN(C(=O)c3ncn4c3COC(c3ccccc3)C4)CC2)cc1` (stereo not drawn) registered an RP-LC retention time of 846 s.
`Cc1cc(C)n2c(C)nnc2c1` yielded an RP-LC retention time of 570 s.
`O=C(CCc1nnc2c3cc(-c4ccc(F)cc4)nn3ccn12)NCCc1cccs1` yielded an RP-LC retention time of 786 s.
Compound `COCCNC(=O)CN1C(=O)C2CCCCN2c2ccc(C(=O)N3CCCCC3)cc21` (stereo not drawn) returned an RP-LC retention time of 696 s.
Under `Cc1ccc(S(=O)(=O)N2CCc3nc[nH]c3C2)cc1` stands 591 s; under `O=C(Cc1cccc2ccccc12)NCCOc1ccc(F)cc1`, 860 s.
Take `CCN1CCN(CCCNc2nnc(-c3nc(C4CC4)no3)c3ccccc23)CC1`: the RP-LC retention time was found to be 584 s.
Under `Cn1nccc1-c1cccc(-c2noc(-c3ccccc3Cl)n2)c1` stands 1170 s; under `Cc1cc(C)n(-c2ccnc(N3CCC(C(=O)NCCc4ccccc4)CC3)n2)n1`, 839 s.
The result for `CCS(=O)(=O)c1nc2ccc(NS(=O)(=O)c3ccccc3F)cc2s1` reads 835 s.
The result for `O=C(COc1ccc(Br)cc1)Nc1ccnn1Cc1cccs1` reads 916 s; that for `Cc1cc(C)cc(NC(=O)C2CCN(S(=O)(=O)c3ccc(-c4noc(C5CC5)n4)cc3)CC2)c1`, 838 s; that for `COc1ccc(NC(=O)CSc2nc3ccccc3nc2C)cc1`, 802 s.
Take `Cc1ccc(Nc2cc(N3CCC(C(=O)N4CCC5(CC4)OCCO5)CC3)ncn2)cc1`: the RP-LC retention time stood at 645 s.
Under `Cc1ccc2cc(CCC(=O)O)c(=O)[nH]c2c1` stands 758 s.
Under `COc1ccc(N2CCN(c3nc(C(=O)NCC4CCCO4)cs3)CC2)cc1` (stereo not drawn) stands 821 s; under `C[C@@H](Oc1ccc(S(C)(=O)=O)cc1C(=O)N1CCN(c2ncc(C(F)(F)F)cc2F)CC1)C(F)(F)F`, 1090 s; under `COc1ccc(Cl)cc1NS(=O)(=O)c1cc(-c2c(C)noc2NC(C)=O)ccc1OC`, 823 s.
Under `O=C(Nc1cccc(F)c1)C1CC(=O)N(c2ccc3c(c2)CCN3C(=O)C2CCC2)C1` (stereo not drawn) stands 839 s; under `CC(=O)c1cccc(NC(=O)CN2CCCN(Cc3cccc(F)c3)S2(=O)=O)c1`, 880 s.
Regarding `Cc1cc(C)c(C)c(S(=O)(=O)NC2CCN(c3ccc(=O)n(CC4CC4)n3)CC2)c1C`, the RP-LC retention time came to 1040 s.
The compound `O=C(NCC1CCN(S(=O)(=O)C2CC2)CC1)c1cc(=O)c2ccccc2o1` displayed an RP-LC retention time of 674 s.
Under `Cc1oc(-c2[nH]ncc2C(=O)N2CCOCC2)cc1S(=O)(=O)N1CCOCC1` stands 595 s; under `CCS(=O)(=O)N1CC(=O)N(c2cccc(Cl)c2C)C(C)(C(=O)NCc2ccccc2)C1` (stereo not drawn), 906 s; under `Cc1ccc(N2CCN(Cc3c(C)noc3C)CC2)cc1`, 621 s.
The result for `COc1ccc2[nH]c(C(=O)N3CCN(C(=O)c4ccc(Br)o4)CC3)cc2c1` reads 784 s; that for `O=C(NC1CC1)c1ccc(OCC2CCCN(C(=O)c3cc(F)ccc3F)C2)cc1` (stereo not drawn), 820 s; that for `Cc1cccc(S(=O)(=O)Nc2ccc(-c3cn4ccc(C)nc4n3)cc2)c1`, 659 s.
The result for `COc1ccc(Cl)cc1NC(=O)CSc1nccc(N2CCN(c3cc(C)ccc3C)CC2)n1` reads 1160 s; that for `CCc1nc2c(NC(=O)c3cccc(Br)c3)cccn2n1`, 951 s; that for `COc1cccc(-c2nc(-c3ccc4oc(C)nc4c3)no2)c1OC`, 1020 s.
The compound `Cc1cc(C)cc(NC(=O)Cc2nc(-c3ccccn3)n[nH]2)c1` displayed an RP-LC retention time of 669 s.
Under `COc1cccc(-n2c(N3CCCC(C(=O)Nc4ccc(F)c(F)c4)C3)nc3ccsc3c2=O)c1` (stereo not drawn) stands 993 s.
As for `CCn1c(=O)c2c(nc3n2CCCN3C2CCCCC2)n(C)c1=O`, the RP-LC retention time was determined as 899 s.
The result for `COc1cc([C@H]2c3cc4c(cc3[C@@H](O)[C@H](CO)[C@H]2C(=O)Nc2ccccc2)OCO4)cc(OC)c1OC` reads 730 s; that for `COC(=O)c1ccc2c(=O)n(-c3ccc(Cl)cc3)c(N3CCCC3)nc2c1`, 1060 s.
For the compound `COc1ccc(-c2nc3ccccc3c3nnc(SCc4cn5ccccc5n4)n23)cc1`, the RP-LC retention time amounted to 742 s.
On to `COc1ccccc1/C=C/c1nc(-c2ccc3oc(C)nc3c2)no1`, for which the RP-LC retention time turned out to be 1080 s.
Compound `COc1ccc(-c2nsc(SCC(=O)Nc3cc(C)on3)n2)cc1` yielded an RP-LC retention time of 860 s.
Compound `COc1cc(NC(=O)C2=C(C)OCCS2)c(Cl)cc1C(=O)N1CCN(c2ccccn2)CC1` displayed an RP-LC retention time of 668 s.
The compound `COCc1cc2nn(CC(=O)Nc3ccc(F)cc3C)c(=O)n2c(-c2ccccc2)n1` yielded an RP-LC retention time of 826 s.
The result for `O=C(NC1CCCCCC1)C1CCCN(c2ncc(-c3cccc(F)c3)cn2)C1` (stereo not drawn) reads 1160 s; that for `Cc1noc([C@@H]2CN(C(=O)c3cc(C)oc3C)C[C@H]2CO)n1`, 640 s.
Take `O=C(Nc1ccc(Br)cc1)N(c1ccccc1)c1ccccc1`: the RP-LC retention time was 1040 s.
`COc1cc(NC(=O)Cn2cnc3c(sc4nc(-c5ccccc5)ccc43)c2=O)cc(OC)c1` displayed an RP-LC retention time of 996 s.
`Cc1cc(F)ccc1NC(=O)C1CCN(C(=O)C2Sc3ccccc3NC2=O)CC1` (stereo not drawn) came in with an RP-LC retention time of 738 s.
Take `CC(CCc1ccccc1)NC(=O)C1CCCN(c2nccnc2Oc2ccccc2)C1` (stereo not drawn): the RP-LC retention time came out at 1100 s.
`N#Cc1cccc(Cn2c(-c3nc(-c4ccccc4)no3)cccc2=O)c1` returned an RP-LC retention time of 688 s.
For `O=C1NCCOCCN(S(=O)(=O)c2cccc(F)c2)[C@H]2CCC[C@@H]12`, the RP-LC retention time was determined as 748 s.
Under `COc1cccc(-c2nn3c(COc4ccc(Br)cc4)nnc3s2)c1OC` stands 1130 s; under `CCOc1ccc(NC(=O)c2c(O)c3cccnc3n(-c3ccccc3)c2=O)cc1`, 1270 s; under `O=C(C1CCC1)N1CCC(c2noc(-c3ccncc3)n2)C1` (stereo not drawn), 693 s.
The result for `Cc1c(CNCCCN2CCCC2=O)c(C(=O)O)c(C)n1Cc1cccc(Cl)c1` reads 665 s.
Under `CC(C)C(=O)N1CCCc2ccc(NC(=O)c3ccc(F)c(F)c3)cc21` stands 871 s.
In turn, `COc1cc(OC)cc(C(=O)NC2CCN(c3cc(-c4ccc(F)cc4)[nH]n3)C2)c1` (stereo not drawn) had an RP-LC retention time of 745 s.
Turning to `CCOc1ccc2nc(NC(=O)C3CCCN3S(=O)(=O)c3cc(C(=O)OC)n(C)c3)sc2c1` (stereo not drawn), the RP-LC retention time is 976 s.
`O=C(CSc1nnc(-c2ccccc2F)o1)Nc1nccs1` had an RP-LC retention time of 691 s.
Under `CCc1nnc(-c2cn(CC(=O)NC3CCCCCC3)c3ccccc23)o1` stands 790 s; under `COc1ccc(OC)c(CNC(=O)c2cn3ccc(C)cc3n2)c1`, 541 s; under `O=C(Nc1ccccc1C(F)(F)F)c1ccc(N2CCCC2)nn1`, 868 s.
The result for `COc1cccc(-n2c(=O)c(C(=O)Nc3ccc(F)cc3F)c(O)c3cccnc32)c1` reads 1220 s; that for `Cc1nn(C)c(C)c1CNC(=O)c1cccc2[nH]cc(CN3CCCC3)c12`, 600 s.
